Tests used:
miR-10b [1] = assay: Luciferase reporter assay of miR-10b inhibition, MCF7 cells; type: cell-based; conditions: Homo sapiens, MCF7, 48 h
Description: (§1) To identify miR-10b inhibitors, a luciferase reporter system was designed with complementary oligonucleotides for miR-10b.This luciferase reporter would repress Renilla luciferase signal in the presence of a functional mature miR-10b. However, in the presence of a small molecule that can inhibit mature miR-10b expression or affect its downstream function, the luciferase expression is restored again.
(§2) The PsiCHECK™-2 luciferase reporter vector was acquired from Promega™, Complementary oligonucleotides for hsa-miR-10b were designed based on the mature miRNA sequence and obtained from Thermo Fisher Scientific. In the design of the microRNA target sequence, several base pairs were added to have two different restriction sites recognizable by the enzyme SgfI at one side, and PmeI on the other (present in the vector as well). In addition, the insert was designed with a restriction site for SacI enzyme in order to have an additional site to digest the vector when monitoring colonies for the presence/absence of the insert. The designed oligonucleotides were annealed as follows: Complementary strands were mixed at a 1:1 molar ratio in a micro centrifuge tube. The mixture was diluted to a final concentration of 1 pmol/μl with a buffer solution of 10 mM Tris, 1 mM EDTA, and 50 mM NaCl (pH 8.0). Mixes were incubated at 95° C. for 5 min, and then the heat was reduced gradually for 70 min, until reaching 4° C. The annealed oligonucleotides were digested along with the PsiCHECK™2 vector with SgfI and PmeI and ligated at the 3′-UTR (downstream) of the Renilla luciferase reporter gene in the PsiCHECK™-2vector. Insert sequences were further confirmed in two ways: enzymatic digestion and sequencing.
(§3) MCF7 cells were seeded 24 h prior to transfection in 96 well plates (2.0×10^4 cells/well). For testing the sensitivity of the assay, antagomiRs and pre-miRs against miR-10b were used at a final concentration of 100 nM. For testing small molecule miRNA inhibitors, the compounds of interest were added to a final concentration of 10 μM. The assay was done in MCF7 or MDA-MB-231 cells at approximately 60% confluence using Lipofectamine in Opti-Mem media with the final vector concentration of 250 ng/mL. All transfections were performed in triplicate for statistical analysis. The cells were incubated at 37° C. for 6 h, followed by replacement of the transfected media with fresh media. After 48 h incubation, the media was removed, and cells were lysed and assayed with a Dual Luciferase Assay Kit (Promega) using a Vi-Tech luminometer. The ratio of Renilla to firefly luciferase expression was calculated for each of the triplicates.

miR-10b [2] = assay: Luciferase reporter assay of miR-10b inhibition, MDA-MB-231 cells; type: cell-based; conditions: Homo sapiens, MDA-MB-231, 48 h
Description: as §1, §2, §3

[3] = Microsomal stability assay, mouse; type: in vitro ADME; conditions: mouse, liver microsomes, pH 7.4, mouse liver microsomes; 1 μM test compound; unit printed in b356 only
Protocol: (§4) The liver microsomal incubation mixture was composed of liver microsomes (with a concentration of 0.5 mg microsomal protein/ml), the test compound (1 μM), MgCl2 (3 mM), EDTA (1 mM) in potassium phosphate buffer (100 mM, pH 7.4). Control substrates used were Midazolam and Ketanserin. The reaction was initiated with the addition of an NADPH regeneration solution (1.3 mM NADPH) and maintained at 37° C. with shaking. At five sequential time points ranging from 0 to 45 min, aliquots of the mixture (50 μL) were removed and quenched with acetonitrile (100 μL) containing an internal standard control (imipramine) Samples were analyzed after vortexing and centrifugation by liquid chromatography-mass spectrometry (LC-MS/MS). The in vitro t1/2 was then calculated and clearance followed literature.

[4] = Microsomal stability assay, rat; type: in vitro ADME; conditions: rat, liver microsomes, pH 7.4, rat liver microsomes; 1 μM test compound; unit printed in b356 only
Protocol: as §4

[5] = Microsomal stability assay, human; type: in vitro ADME; conditions: pH 7.4; human liver microsomes; 1 μM test compound; unit printed in b356 only
Protocol: as §4

**Q.** For `Cc1ccc(F)c(NC(=O)Nc2ccc(-c3cccc4[nH]nc(N)c34)cc2)c1` [Example 10, 1-(4-(3-amino-1H-indazol-4-yl)phenyl)-3-(2-fluoro-5-methylphenyl)urea, reference compound], which fold induction at 10 µM (miR-10b [1]; Table 3, MCF7, 10 μM compound, vs negative control (DMSO), mean of triplicate, read-out: n-fold increase in luciferase expression, Mean) is on record?
**A.** 2.5

**Q.** What about the fold induction at 10 µM (miR-10b [1]; Table 3, MCF7, 10 μM compound, vs negative control (DMSO), replicate #1, read-out: n-fold increase in luciferase expression, #1) of the same compound?
**A.** 2.74

**Q.** What about the fold induction at 10 µM (miR-10b [1]; Table 3, MCF7, 10 μM compound, vs negative control (DMSO), replicate #2, read-out: n-fold increase in luciferase expression, #2) of the same compound?
**A.** 2.52

**Q.** What about the fold induction at 10 µM (miR-10b [1]; Table 3, MCF7, 10 μM compound, vs negative control (DMSO), replicate #3, read-out: n-fold increase in luciferase expression, #3) of the same compound?
**A.** 2.25

**Q.** What about the fold induction at 10 µM (miR-10b [1]; Table 4, MCF7, 10 μM compound, vs negative control (DMSO), mean of triplicate, read-out: n-fold increase in luciferase expression, Mean) of the same compound?
**A.** 1.97

**Q.** What about the fold induction at 10 µM (miR-10b [1]; Table 4, MCF7, 10 μM compound, vs negative control (DMSO), replicate #1, read-out: n-fold increase in luciferase expression, #1) of the same compound?
**A.** 2.56

**Q.** What about the fold induction at 10 µM (miR-10b [1]; Table 4, MCF7, 10 μM compound, vs negative control (DMSO), replicate #2, read-out: n-fold increase in luciferase expression, #2) of the same compound?
**A.** 1.58

**Q.** What about the fold induction at 10 µM (miR-10b [1]; Table 4, MCF7, 10 μM compound, vs negative control (DMSO), replicate #3, read-out: n-fold increase in luciferase expression, #3) of the same compound?
**A.** 1.78

**Q.** And the fold induction at 10 µM (miR-10b [1]; Table 6, MCF7, second biological replicant, 10 μM compound, mean of triplicate, read-out: n-fold increase in luciferase expression, Mean)?
**A.** 17.9

**Q.** And the fold induction at 10 µM (miR-10b [1]; Table 6, MCF7, second biological replicant, 10 μM compound, replicate #1, read-out: n-fold increase in luciferase expression, #1)?
**A.** 25.6

**Q.** What about the fold induction at 10 µM (miR-10b [1]; Table 6, MCF7, second biological replicant, 10 μM compound, replicate #2, read-out: n-fold increase in luciferase expression, #2) of the same compound?
**A.** 14.6

**Q.** What about the fold induction at 10 µM (miR-10b [1]; Table 6, MCF7, second biological replicant, 10 μM compound, replicate #3, read-out: n-fold increase in luciferase expression, #3) of the same compound?
**A.** 13.4

**Q.** What about the fold induction at 10 µM (miR-10b [2]; Table 5, MDA-MB-231, 10 μM compound, vs negative control (DMSO), mean of triplicate, read-out: n-fold increase in luciferase expression, Mean) of the same compound?
**A.** 1.87

**Q.** And the fold induction at 10 µM (miR-10b [2]; Table 5, MDA-MB-231, 10 μM compound, vs negative control (DMSO), replicate #1, read-out: n-fold increase in luciferase expression, #1)?
**A.** 1.51

**Q.** And the fold induction at 10 µM (miR-10b [2]; Table 5, MDA-MB-231, 10 μM compound, vs negative control (DMSO), replicate #2, read-out: n-fold increase in luciferase expression, #2)?
**A.** 1.14

**Q.** What about the fold induction at 10 µM (miR-10b [2]; Table 5, MDA-MB-231, 10 μM compound, vs negative control (DMSO), replicate #3, read-out: n-fold increase in luciferase expression, #3) of the same compound?
**A.** 2.95

**Q.** And the fold induction at 10 µM (miR-10b [2]; Table 7, MDA-MB-231, second biological replicant, 10 μM compound, mean of triplicate, read-out: n-fold increase in luciferase expression, Mean)?
**A.** 1.97

**Q.** And the fold induction at 10 µM (miR-10b [2]; Table 7, MDA-MB-231, second biological replicant, 10 μM compound, replicate #1, read-out: n-fold increase in luciferase expression, #1)?
**A.** 2.99

**Q.** And the fold induction at 10 µM (miR-10b [2]; Table 7, MDA-MB-231, second biological replicant, 10 μM compound, replicate #2, read-out: n-fold increase in luciferase expression, #2)?
**A.** 2.24

**Q.** And the fold induction at 10 µM (miR-10b [2]; Table 7, MDA-MB-231, second biological replicant, 10 μM compound, replicate #3, read-out: n-fold increase in luciferase expression, #3)?
**A.** 0.69

**Q.** And the CLint scaled at 1 μM [3]?
**A.** 86.5 mL/min/kg

**Q.** What about the half-life at 1 μM [3] of the same compound?
**A.** 1.05 h

**Q.** And the CLint scaled at 1 μM [4]?
**A.** 20.4 mL/min/kg

**Q.** What about the half-life at 1 μM [4] of the same compound?
**A.** 2.03 h

**Q.** And the CLint scaled at 1 μM [5]?
**A.** 8.8 mL/min/kg

**Q.** And the half-life at 1 μM [5]?
**A.** 3.28 h

Source: US20230145868A1, “UREA INHIBITORS OF MICRO-RNA” (Board of Regents, The University of Texas System, priority 2020, published 2023)
